pIC50: −log10 of the molar value.
target: T1, human liver glycogen phosphorylase (Homo sapiens, UniProt P06737); assay: Liver glycogen phosphorylase activity, forward reaction system (NADPH detection at 340 nm); type: biochemical; conditions: enzyme inhibitory activity against recombinant human liver glycogen phosphorylase (Sf9 cell lysate), room temperature, 75 minutes
T1 construct: made in house; host or cells: Sf9 insect cells (suspension of disrupted cells, diluted in BES buffer, not purified)
T1 sequence (P06737 1-847): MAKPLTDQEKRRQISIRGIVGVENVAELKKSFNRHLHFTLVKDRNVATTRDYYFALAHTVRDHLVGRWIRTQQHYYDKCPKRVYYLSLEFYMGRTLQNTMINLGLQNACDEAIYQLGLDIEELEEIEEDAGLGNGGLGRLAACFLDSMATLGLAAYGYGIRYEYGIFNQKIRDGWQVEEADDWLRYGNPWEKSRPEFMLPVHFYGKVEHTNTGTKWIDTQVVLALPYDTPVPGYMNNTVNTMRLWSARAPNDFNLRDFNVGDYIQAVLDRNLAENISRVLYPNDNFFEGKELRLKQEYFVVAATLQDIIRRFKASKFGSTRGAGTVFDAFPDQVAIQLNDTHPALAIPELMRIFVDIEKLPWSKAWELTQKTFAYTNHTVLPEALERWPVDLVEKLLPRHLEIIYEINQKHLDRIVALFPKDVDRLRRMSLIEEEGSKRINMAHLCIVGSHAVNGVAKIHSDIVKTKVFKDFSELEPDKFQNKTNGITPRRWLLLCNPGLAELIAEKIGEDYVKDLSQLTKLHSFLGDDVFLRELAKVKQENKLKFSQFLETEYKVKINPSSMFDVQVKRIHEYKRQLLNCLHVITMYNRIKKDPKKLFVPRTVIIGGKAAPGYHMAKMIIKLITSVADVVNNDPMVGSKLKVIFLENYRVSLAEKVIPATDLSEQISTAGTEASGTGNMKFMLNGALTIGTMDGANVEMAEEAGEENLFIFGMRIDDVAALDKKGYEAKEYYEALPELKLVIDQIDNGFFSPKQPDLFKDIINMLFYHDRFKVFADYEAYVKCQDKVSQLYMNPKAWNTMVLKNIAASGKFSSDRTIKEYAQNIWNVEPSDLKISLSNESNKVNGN
Method: The glycogen phosphorylase activity was determined by a method using a forward reaction system.
The following method was used to determine the glycogen phosphorylase activity using a forward reaction system. Glucose-1-phosphate generated from glycogen by glycogen phosphorylase was converted to glucono-δ-lactone-6-phosphate by transphosphorylation and dehydrogenation reactions using phosphoglucomutase and glucose-6-phosphate dehydrogenase (G6PDH). At this time, NADPH generated from NADP in the dehydrogenation reaction by G6PDH was detected.
An enzyme solution of human liver glycogen phosphorylase was obtained by diluting with 100 mmol/L BES buffer (pH 6.8, containing 2 mmol/L EDTA) a suspension disrupted Sf9 cells in which a recombinant human liver glycogen phosphorylase was forcibly expressed. Phosphate buffer (16 mmol/L KH2PO4, containing 24 mmol/L Na2HPO4) was used as a substrate solution. A mixture of 8 U/mL phosphoglucomutase and 60 U/mL G6PDH was prepared with BES buffer. A reaction buffer (1.4 mmol/L NADP, 30 mmol/L MgCl2, 8 μmol/L glucose-1,6-diphosphate, 8 mg/mL glycogen, 40 mmol/L BES, containing 0.8 mmol/L EDTA) and a glucose solution (75 mmol/L glucose and 100 mmol/L BES, containing 2 mmol/L EDTA) were prepared. A test substance was dissolved in 1% DMSO aqueous solution.
To a mixture of the glucose solution (20 μL), the substrate solution (20 μL), the reaction buffer (100 μL), and the test substance (20 μL), the recombinant human liver glycogen phosphorylase solution (20 μL), and a mixture (20 μL) of phosphoglucomutase and G6PDH were added to initiate an enzymatic reaction. To a control, 1% DMSO aqueous solution was added instead of the test substance. A solution to which the substrate was not added was used as a blank. After initiation of the reaction, absorbance at 340 nm was measured immediately. The reaction was performed at room temperature for 75 minutes, and then absorbance at 340 nm was measured again. The enzyme activity was obtained by deducting the change in absorbance of the blank for 75 minutes from the change in absorbance over 75 minutes. The inhibition rate (%) of the test substance was calculated by “(1−(enzyme activity of test substance)/(enzyme activity of control))×100”.
“IC50” represents an enzyme inhibitory activity against human liver glycogen phosphorylase.

Row | Structure (SMILES) | pIC50
1 | Cc1nc(C2CC2)c(CNC(=O)c2cc(NC(=O)c3cc(F)c(F)cc3Cl)[nH]n2)o1 [Example 1-37, 5-(2-chloro-4,5-difluoro-benzoylamino)-1H-pyrazole-3-carboxylic acid (4-cyclopropyl-2-methyl-oxazol-5-ylmethyl)-amide] | > 7.00
2 | Cc1nc(C2CCCCC2)c(CNC(=O)c2cc(NC(=O)c3cc(F)c(F)cc3Cl)[nH]n2)o1 [Example 1-38, 5-(2-chloro-4,5-difluoro-benzoylamino)-1H-pyrazole-3-carboxylic acid (4-cyclohexyl-2-methyl-oxazol-5-ylmethyl)-amide] | > 7.00
3 | Cc1nc(C2CC2)oc1CNC(=O)c1cc(NC(=O)c2cc(F)c(F)cc2Cl)[nH]n1 [Example 1-39, 5-(2-chloro-4,5-difluoro-benzoylamino)-1H-pyrazole-3-carboxylic acid (2-cyclopropyl-4-methyl-oxazol-5-ylmethyl)-amide] | > 7.00
4 | Cc1nc(C2CCCCC2)oc1CNC(=O)c1cc(NC(=O)c2cc(F)c(F)cc2Cl)[nH]n1 [Example 1-40, 5-(2-chloro-4,5-difluoro-benzoylamino)-1H-pyrazole-3-carboxylic acid (2-cyclohexyl-4-methyl-oxazol-5-ylmethyl)-amide] | > 7.00
5 | Cc1nc(Cc2ccccc2)oc1CNC(=O)c1cc(NC(=O)c2cc(F)c(F)cc2Cl)[nH]n1 [Example 1-41, 5-(2-chloro-4,5-difluoro-benzoylamino)-1H-pyrazole-3-carboxylic acid (2-benzyl-4-methyl-oxazol-5-ylmethyl)-amide] | > 7.00
6 | Cc1nc(CCc2ccccc2)oc1CNC(=O)c1cc(NC(=O)c2cc(F)c(F)cc2Cl)[nH]n1 [Example 1-42, 5-(2-chloro-4,5-difluoro-benzoylamino)-1H-pyrazole-3-carboxylic acid (4-methyl-2-phenethyl-oxazol-5-ylmethyl)-amide] | > 7.00
7 | Cc1nc(COC(c2ccccc2)(c2ccccc2)c2ccccc2)oc1CNC(=O)c1cc(NC(=O)c2cc(F)c(F)cc2Cl)[nH]n1 [Example 1-43, 5-(2-chloro-4,5-difluoro-benzoylamino)-1H-pyrazole-3-carboxylic acid (4-methyl-2-trityloxymethyl-oxazol-5-ylmethyl)-amide] | < 6.52
8 | Cc1nc(COc2ccccc2)oc1CNC(=O)c1cc(NC(=O)c2cc(F)c(F)cc2Cl)[nH]n1 [Example 1-44, 5-(2-chloro-4,5-difluoro-benzoylamino)-1H-pyrazole-3-carboxylic acid (4-methyl-2-phenoxymethyl-oxazol-5-ylmethyl)-amide] | > 7.00
9 | COCc1nc(C)c(CNC(=O)c2cc(NC(=O)c3cc(F)c(F)cc3Cl)[nH]n2)o1 [Example 1-45, 5-(2-chloro-4,5-difluoro-benzoylamino)-1H-pyrazole-3-carboxylic acid (2-methoxymethyl-4-methyl-oxazol-5-ylmethyl)-amide] | > 7.00
10 | Cc1nc(COCC(F)(F)F)oc1CNC(=O)c1cc(NC(=O)c2cc(F)c(F)cc2Cl)[nH]n1 [Example 1-46] | > 7.00

Results, then the compound that gave them:

Row | pIC50 | Structure (SMILES)
11 | > 7.00 | CSCCc1oc(C)nc1CNC(=O)c1cc(NC(=O)c2cc(F)c(F)cc2Cl)[nH]n1 [Example 1-24, 5-(2-chloro-4,5-difluoro-benzoylamino)-1H-pyrazole-3-carboxylic acid [2-methyl-5-(2-methylsulfanyl-ethyl)-oxazol-4-ylmethyl]-amide]
12 | > 7.00 | Cc1nc(-c2ccc(F)cc2)c(CNC(=O)c2cc(NC(=O)c3cc(F)c(F)cc3Cl)[nH]n2)o1 [Example 1-25, 5-(2-chloro-4,5-difluoro-benzoylamino)-1H-pyrazole-3-carboxylic acid [4-(4-fluoro-phenyl)-2-methyl-oxazol-5-ylmethyl]-amide]
13 | > 7.00 | Cc1nc(-c2cccc(F)c2)c(CNC(=O)c2cc(NC(=O)c3cc(F)c(F)cc3Cl)[nH]n2)o1 [Example 1-26, 5-(2-chloro-4,5-difluoro-benzoylamino)-1H-pyrazole-3-carboxylic acid [4-(3-fluoro-phenyl)-2-methyl-oxazol-5-ylmethyl]-amide]
14 | > 7.00 | Cc1nc(-c2ccccc2F)c(CNC(=O)c2cc(NC(=O)c3cc(F)c(F)cc3Cl)[nH]n2)o1 [Example 1-27, 5-(2-chloro-4,5-difluoro-benzoylamino)-1H-pyrazole-3-carboxylic acid [4-(2-fluoro-phenyl)-2-methyl-oxazol-5-ylmethyl]-amide]
15 | > 7.00 | Cc1nc(-c2ccc(Cl)cc2)c(CNC(=O)c2cc(NC(=O)c3cc(F)c(F)cc3Cl)[nH]n2)o1 [Example 1-28, 5-(2-chloro-4,5-difluoro-benzoylamino)-1H-pyrazole-3-carboxylic acid [4-(4-chloro-phenyl)-2-methyl-oxazol-5-ylmethyl]-amide]
16 | > 7.00 | Cc1ccc(-c2nc(C)oc2CNC(=O)c2cc(NC(=O)c3cc(F)c(F)cc3Cl)[nH]n2)cc1 [Example 1-29, 5-(2-chloro-4,5-difluoro-benzoylamino)-1H-pyrazole-3-carboxylic acid [4-(4-methyl-phenyl)-2-methyl-oxazol-5-ylmethyl]-amide]
17 | > 7.00 | Cc1cccc(-c2nc(C)oc2CNC(=O)c2cc(NC(=O)c3cc(F)c(F)cc3Cl)[nH]n2)c1 [Example 1-30, 5-(2-chloro-4,5-difluoro-benzoylamino)-1H-pyrazole-3-carboxylic acid [4-(3-methyl-phenyl)-2-methyl-oxazol-5-ylmethyl]-amide]
18 | > 7.00 | COc1cccc(-c2nc(C)oc2CNC(=O)c2cc(NC(=O)c3cc(F)c(F)cc3Cl)[nH]n2)c1 [Example 1-31, 5-(2-chloro-4,5-difluoro-benzoylamino)-1H-pyrazole-3-carboxylic acid [4-(3-methoxy-phenyl)-2-methyl-oxazol-5-ylmethyl]-amide]
19 | > 7.00 | Cc1nc(-c2ccc(-c3ccccc3)cc2)c(CNC(=O)c2cc(NC(=O)c3cc(F)c(F)cc3Cl)[nH]n2)o1 [Example 1-32, 5-(2-chloro-4,5-difluoro-benzoylamino)-1H-pyrazole-3-carboxylic acid (4-biphenyl-4-yl-2-methyl-oxazol-5-ylmethyl)-amide]
20 | > 7.00 | Cc1nc(CCc2ccccc2)c(CNC(=O)c2cc(NC(=O)c3cc(F)c(F)cc3Cl)[nH]n2)o1 [Example 1-33, 5-(2-chloro-4,5-difluoro-benzoylamino)-1H-pyrazole-3-carboxylic acid (2-methyl-4-phenethyl-oxazol-5-ylmethyl)-amide]
21 | > 7.00 | CCOC(=O)c1nc(C)oc1CNC(=O)c1cc(NC(=O)c2cc(F)c(F)cc2Cl)[nH]n1 [Example 1-34, 5-(2-chloro-4,5-difluoro-benzoylamino)-1H-pyrazole-3-carboxylic acid (4-ethoxycarbonyl-2-methyl-oxazol-5-ylmethyl)-amide]
22 | > 7.00 | Cc1nc(CO)c(CNC(=O)c2cc(NC(=O)c3cc(F)c(F)cc3Cl)[nH]n2)o1 [Example 1-35, 5-(2-chloro-4,5-difluoro-benzoylamino)-1H-pyrazole-3-carboxylic acid (4-hydroxymethyl-2-methyl-oxazol-5-ylmethyl)-amide]
23 | > 7.00 | Cc1nc(Cc2ccccc2)c(CNC(=O)c2cc(NC(=O)c3cc(F)c(F)cc3Cl)[nH]n2)o1 [Example 1-36, 5-(2-chloro-4,5-difluoro-benzoylamino)-1H-pyrazole-3-carboxylic acid (4-benzyl-2-methyl-oxazol-5-ylmethyl)-amide p-toluenesulfonate]

— patent US20090036450A1, “PYRAZOLE COMPOUNDS AND USE THEREOF” (JAPAN TOBACCO, INC., priority 2006, published 2009)
